Structures can show the parent of a compound that is named as a salt.
Tested on: male mouse of the C57BL/6J line
Assay: Alcohol/water preference (alcohol consumption) after forced alcoholization in mice
Assay type: in vivo
Parameters: key to Alcohol/Water preference index (Pref.), Mean / Alcohol/Water preference index (Pref), Mean: Pref = (Alcohol−Water)/(Alcohol+Water); >0 alcohol, <0 water preference
Conditions: for Alcohol/Water preference index (Pref), Mean: Example 2, Table D, n = 9; for effect on alcohol consumption (in words): same model and same doses, administered separately or in combination as stated; for Alcohol/Water preference index (Pref.), Mean: Experiment A, single agent 1 mg/kg injected before session, n = 6; for effect on alcoholic preference (in words): on this model and at the doses used, vs saline control, significant if p≦0.05
Protocol: All the products used for the treatments are dissolved in saline (0.9% NaCl) so that the injection volume is 10 ml/kg of body weight.
The animals are kept in their cage throughout the experiment. They are subjected to forced alcoholization, with 10% alcohol as the only drink, for 15 days. They are then returned to normal conditions with water to drink.
Different groups of mice are constituted depending on the treatments: controls (injected with saline), prazosin 1 mg/kg, cyproheptadine 1 mg/kg, prazosin 1 mg/kg+cyproheptadine 1 mg/kg, prazosin 0.5 mg/kg+cyproheptadine 1 mg/kg,
The tests begin 24 hours after forced alcoholization is stopped. They proceed during the first two hours of darkness (period of activity), during which the animals have access to a feeder with water and a feeder with alcohol. The amounts of water and of alcohol consumed are measured after said two hours.
Several sessions of measuring the consumption of water and of alcohol are carried out. For the first 2 sessions (S1-S2) the animals receive an injection of saline; they receive the treatments (prazosin, cyproheptadine, prazosin+cyproheptadine) or saline (for the control group) in the next sessions (T1, T2, T3). The treatments are carried out 10 minutes before each session.
The Alcohol/Water preference index (Pref.) is calculated as follows: Pref.=(Consumption Alcohol−Water)/(Consumption Alcohol+Water)
0<Pref.≦1: Preference for alcohol
Pref.=0: No preference alcohol vs water
−1≦Pref.<0: Preference for water (i.e. aversion to alcohol)
During the sessions for measuring alcohol consumption, the animals receive the treatments 30 minutes before said measurement.
The results are expressed in mean value and standard error of mean (SEM). The preference indices (Pref) of the treated groups are compared with that of the control group by the bilateral Student t-test for independent groups. The values shown (p vs Con) are the probabilities for the difference between treated group and control group being due to chance. A difference is regarded as statistically significant if p≦0.05.
The cyproheptadine/alfuzosin, cyproheptadine/terazosin and cyproheptadine/tamsulosin combinations were tested in experimental conditions identical to those described in example 1 above and using the same model.

[1] = alpha1 antagonist alone 0.5 mg/kg, treatment session T1
[2] = alpha1 antagonist alone 0.5 mg/kg, treatment session T2
[3] = alpha1 antagonist alone 0.5 mg/kg, treatment session T3

| SMILES | Alcohol/Water preference index (Pref), Mean [1] | Alcohol/Water preference index (Pref), Mean [2] | Alcohol/Water preference index (Pref), Mean [3] | effect on alcohol consumption (in words) | Alcohol/Water preference index (Pref), Mean (cyproheptadine alone 1 mg/kg, treatment session T1) | Alcohol/Water preference index (Pref), Mean (cyproheptadine alone 1 mg/kg, treatment session T2) | Alcohol/Water preference index (Pref), Mean (cyproheptadine alone 1 mg/kg, treatment session T3) | Alcohol/Water preference index (Pref.), Mean (treatment session T1) | Alcohol/Water preference index (Pref.), Mean (treatment session T2) | Alcohol/Water preference index (Pref.), Mean (treatment session T3) | effect on alcoholic preference (in words) | effect on alcohol consumption (in words) (hydrochloride) | effect on alcohol consumption (in words) (listed as cyproheptadine, hydrochloride) |
| --- | --- | --- | --- | --- | --- | --- | --- | --- | --- | --- | --- | --- | --- |
| COc1cc2nc(N(C)CCCNC(=O)C3CCCO3)nc(N)c2cc1OC (centres unmarked) [Alfuzosin, N-[3-[(4-amino-6,7-dimethoxy-quinazolin-2-yl)-methyl-amino]propyl]tetrahydrofuran-2-carboxamide] | 0.59 | 0.62 | 0.63 | do not have an effect | – | – | – | – | – | – | – | – | – |
| CN1CCC(=C2c3ccccc3C=Cc3ccccc32)CC1 [Cyproheptadine, 4-(5H-dibenzo[a,d]cyclohepten-5-ylidene)-1-methylpiperidine hydrochloride] | – | – | – | – | 0.91 | 0.76 | 0.81 | 0.92 | 0.82 | 0.82 | do not have a significant effect | do not have an effect | do not have any effect |
| COc1cc2nc(N3CCN(C(=O)c4ccco4)CC3)nc(N)c2cc1OC [Prazosin, 2-[4-(2-furoyl)piperazin-1-yl]-6,7-dimethoxyquinazolin-4-amine] | – | – | – | do not have any effect | – | – | – | 0.78 | 0.57 | 0.72 | do not have a significant effect | – | – |
| CCOc1ccccc1OCCN[C@H](C)Cc1ccc(OC)c(S(N)(=O)=O)c1 [Tamsulosin, (R)-5-(2-(2-(2-ethoxyphenoxy)ethylamino)propyl)-2-methoxybenzenesulfonamide] | 0.68 | 0.79 | 0.77 | do not have an effect | – | – | – | – | – | – | – | – | – |
| COc1cc2nc(N3CCN(C(=O)C4CCCO4)CC3)nc(N)c2cc1OC (centres unmarked) [Terazosin, 6,7-dimethoxy-2-[4-(tetrahydrofuran-2-ylcarbonyl)piperazin-1-yl]quinazolin-4-amine] | 0.64 | 0.75 | 0.72 | do not have an effect | – | – | – | – | – | – | – | – | – |
